In US10189816B2, “Substituted pyridines as inhibitors of human immunodeficiency virus replication” (priority 2015, dated 2019):
Where two headings read alike, the source gives them in different places.

Tested on: NL-RLuc virus
Assay: Inhibition of HIV replication (NL-RLuc reporter virus in MT-2 cells, luciferase readout)
Format: cell-based
Settings: Human immunodeficiency virus 1, MT2, 120 h
Text: Inhibition of HIV replication: A recombinant NL-RLuc proviral clone was constructed in which a section of the nef gene from NL4-3 was replaced with the Renilla Luciferase gene. This virus is fully infectious and can undergo multiple cycles of replication in cell culture. In addition, the luciferous reporter provides a simple and easy method for quantitating the extent of virus growth and consequently, the antiviral activity of test compounds. The plasmid pNLRLuc contains the proviral NL-Rluc DNA cloned into pUC18 at the PvuII site. The NL-RLuc virus was prepared by transfection of 293T cells with the plasmid pNLRLuc. Transfections were performed using the LipofectAMINE PLUS kit from Invitrogen (Carlsbad, Calif.) according to the manufacturer and the virus generated was titered in MT-2 cells. For susceptibility analyses, the titrated virus was used to infect MT-2 cells in the presence of compound, and after 5 days of incubation, cells were processed and quantitated for virus growth by the amount of expressed luciferase. Assay media was RPMI 1640 supplemented with 10% heat inactivated fetal bovine serum (FBS), 100 units/ml penicillin G/100 units/ml streptomycin, 10 mM HEPES buffer pH 7.55 and 2 mM L-glutamine. The results from at least 2 experiments were used to calculate the EC50 values. Luciferase was quantitated using the Dual Luciferase kit from Promega (Madison, Wis.). Susceptibility of viruses to compounds was determined by incubation in the presence of serial dilutions of the compound. The 50% effective concentration (EC50) was calculated by using the exponential form of the median effect equation where (Fa)=1/[1+(ED50/drug conc.)^m] (Johnson V A, Byington R T. Infectivity Assay. In Techniques in HIV Research. ed. Aldovini A, Walker B D. 71-76. New York: Stockton Press.1990). Activity equal to A refers to a compound having an EC50≤100 nM, while B and C denote compounds having an EC50 between 100 nM and 1 uM (B) or >1 uM (C).

SMILES	EC50 (read-out: Activity) [µM]	EC50 (read-out: EC50 μM) [µM]
Cc1nc(C)c([C@H](OC(C)(C)C)C(=O)O)c(N2CCC(C)(C)CC2)c1-c1ccc2c(c1)CCN(Cc1cccc(F)c1F)C2 [Compound 21, (S)-2-(tert-butoxy)-2-(5-(2-(2,3-difluorobenzyl)-1,2,3,4-tetrahydroisoquinolin-6-yl)-4-(4,4-dimethylpiperidin-1-yl)-2,6-dimethylpyridin-3-yl)acetic acid]	< 0.1	
Cc1nc(C)c([C@H](OC(C)(C)C)C(=O)O)c(N2CCC(C)(C)CC2)c1-c1ccc2c(c1)CCN(Cc1ccc(Cl)c(F)c1)C2 [Compound 22, (S)-2-(tert-butoxy)-2-(5-(2-(4-chloro-3-fluorobenzyl)-1,2,3,4-tetrahydroisoquinolin-6-yl)-4-(4,4-dimethylpiperidin-1-yl)-2,6-dimethylpyridin-3-yl)acetic acid]	< 0.1	
Cc1cccc(Cl)c1CN1CCc2cc(-c3c(C)nc(C)c([C@H](OC(C)(C)C)C(=O)O)c3N3CCC(C)(C)CC3)ccc2C1 [Compound 23, (S)-2-(tert-butoxy)-2-(5-(2-(2-chloro-6-methylbenzyl)-1,2,3,4-tetrahydroisoquinolin-6-yl)-4-(4,4-dimethylpiperidin-1-yl)-2,6-dimethylpyridin-3-yl)acetic acid]	< 0.1	0.003
Cc1nc(C)c([C@H](OC(C)(C)C)C(=O)O)c(N2CCC(C)(C)CC2)c1-c1ccc2c(c1)CCN(Cc1ccc(F)c(Cl)c1)C2 [Compound 24, (S)-2-(tert-butoxy)-2-(5-(2-(3-chloro-4-fluorobenzyl)-1,2,3,4-tetrahydroisoquinolin-6-yl)-4-(4,4-dimethylpiperidin-1-yl)-2,6-dimethylpyridin-3-yl)acetic acid]	< 0.1	
Cc1cc(F)ccc1CN1CCc2cc(-c3c(C)nc(C)c([C@H](OC(C)(C)C)C(=O)O)c3N3CCC(C)(C)CC3)ccc2C1 [Compound 25, (S)-2-(tert-butoxy)-2-(4-(4,4-dimethylpiperidin-1-yl)-5-(2-(4-fluoro-2-methylbenzyl)-1,2,3,4-tetrahydroisoquinolin-6-yl)-2,6-dimethylpyridin-3-yl)acetic acid]	< 0.1	
Cc1nc(C)c([C@H](OC(C)(C)C)C(=O)O)c(N2CCC(C)(C)CC2)c1-c1ccc2c(c1)CCN(Cc1cc(Cl)cc(Cl)c1)C2 [Compound 26, (S)-2-(tert-butoxy)-2-(5-(2-(3,5-dichlorobenzyl)-1,2,3,4-tetrahydroisoquinolin-6-yl)-4-(4,4-dimethylpiperidin-1-yl)-2,6-dimethylpyridin-3-yl)acetic acid]	< 0.1	
Cc1nc(C)c([C@H](OC(C)(C)C)C(=O)O)c(N2CCC(C)(C)CC2)c1-c1ccc2c(c1)CCN(Cc1ccc(C(C)(C)C)cc1)C2 [Compound 27, (S)-2-(tert-butoxy)-2-(5-(2-(4-(tert-butyl)benzyl)-1,2,3,4-tetrahydroisoquinolin-6-yl)-4-(4,4-dimethylpiperidin-1-yl)-2,6-dimethylpyridin-3-yl)acetic acid]	< 0.1	
Cc1nc(C)c([C@H](OC(C)(C)C)C(=O)O)c(N2CCC(C)(C)CC2)c1-c1ccc2c(c1)CCN(Cc1cccc(Cl)c1)C2 [Compound 28, (S)-2-(tert-butoxy)-2-(5-(2-(3-chlorobenzyl)-1,2,3,4-tetrahydroisoquinolin-6-yl)-4-(4,4-dimethylpiperidin-1-yl)-2,6-dimethylpyridin-3-yl)acetic acid]	< 0.1	
Cc1ccc(C)c(CN2CCc3cc(-c4c(C)nc(C)c([C@H](OC(C)(C)C)C(=O)O)c4N4CCC(C)(C)CC4)ccc3C2)c1 [Compound 29, (S)-2-(tert-butoxy)-2-(5-(2-(2,5-dimethylbenzyl)-1,2,3,4-tetrahydroisoquinolin-6-yl)-4-(4,4-dimethylpiperidin-1-yl)-2,6-dimethylpyridin-3-yl)acetic acid]	< 0.1	
Cc1nc(C)c([C@H](OC(C)(C)C)C(=O)O)c(N2CCC(C)(C)CC2)c1-c1ccc2c(c1)CCN(Cc1c(F)cccc1C(F)(F)F)C2 [Compound 30, (S)-2-(tert-butoxy)-2-(4-(4,4-dimethylpiperidin-1-yl)-5-(2-(2-fluoro-6-(trifluoromethyl)benzyl)-1,2,3,4-tetrahydroisoquinolin-6-yl)-2,6-dimethylpyridin-3-yl)acetic acid]	< 0.1	
Cc1nc(C)c([C@H](OC(C)(C)C)C(=O)O)c(N2CCC(C)(C)CC2)c1-c1ccc2c(c1)CCN(Cc1cc(F)cc(F)c1)C2 [Compound 31, (S)-2-(tert-butoxy)-2-(5-(2-(3,5-difluorobenzyl)-1,2,3,4-tetrahydroisoquinolin-6-yl)-4-(4,4-dimethylpiperidin-1-yl)-2,6-dimethylpyridin-3-yl)acetic acid]	< 0.1	0.011
Cc1nc(C)c([C@H](OC(C)(C)C)C(=O)O)c(N2CCC(C)(C)CC2)c1-c1ccc2c(c1)CCN(Cc1cccc(C(F)(F)F)c1F)C2 [Compound 32, (S)-2-(tert-butoxy)-2-(4-(4,4-dimethylpiperidin-1-yl)-5-(2-(2-fluoro-3-(trifluoromethyl)benzyl)-1,2,3,4-tetrahydroisoquinolin-6-yl)-2,6-dimethylpyridin-3-yl)acetic acid]	< 0.1	
Cc1cccc(C)c1CN1CCc2cc(-c3c(C)nc(C)c([C@H](OC(C)(C)C)C(=O)O)c3N3CCC(C)(C)CC3)ccc2C1 [Compound 33, (S)-2-(tert-butoxy)-2-(5-(2-(2,6-dimethylbenzyl)-1,2,3,4-tetrahydroisoquinolin-6-yl)-4-(4,4-dimethylpiperidin-1-yl)-2,6-dimethylpyridin-3-yl)acetic acid]	< 0.1	
Cc1nc(C)c([C@H](OC(C)(C)C)C(=O)O)c(N2CCC(C)(C)CC2)c1-c1ccc2c(c1)CCN(Cc1cc(F)c(F)c(F)c1)C2 [Compound 34, (S)-2-(tert-butoxy)-2-(4-(4,4-dimethylpiperidin-1-yl)-2,6-dimethyl-5-(2-(3,4,5-trifluorobenzyl)-1,2,3,4-tetrahydroisoquinolin-6-yl)pyridin-3-yl)acetic acid]	< 0.1	
Cc1nc(C)c([C@H](OC(C)(C)C)C(=O)O)c(N2CCC(C)(C)CC2)c1-c1ccc2c(c1)CCN(Cc1ccc(F)cc1Cl)C2 [Compound 35, (S)-2-(tert-butoxy)-2-(5-(2-(2-chloro-4-fluorobenzyl)-1,2,3,4-tetrahydroisoquinolin-6-yl)-4-(4,4-dimethylpiperidin-1-yl)-2,6-dimethylpyridin-3-yl)acetic acid]	< 0.1	
Cc1nc(C)c([C@H](OC(C)(C)C)C(=O)O)c(N2CCC(C)(C)CC2)c1-c1ccc2c(c1)CCN(Cc1cccc(C(C)C)c1)C2 [Compound 36, (S)-2-(tert-butoxy)-2-(4-(4,4-dimethylpiperidin-1-yl)-5-(2-(3-isopropylbenzyl)-1,2,3,4-tetrahydroisoquinolin-6-yl)-2,6-dimethylpyridin-3-yl)acetic acid]	< 0.1	
Cc1nc(C)c([C@H](OC(C)(C)C)C(=O)O)c(N2CCC(C)(C)CC2)c1-c1ccc2c(c1)CCN(Cc1ccc(F)c(F)c1)C2 [Compound 37, (S)-2-(tert-butoxy)-2-(5-(2-(3,4-difluorobenzyl)-1,2,3,4-tetrahydroisoquinolin-6-yl)-4-(4,4-dimethylpiperidin-1-yl)-2,6-dimethylpyridin-3-yl)acetic acid]	< 0.1	
Cc1nc(C)c([C@H](OC(C)(C)C)C(=O)O)c(N2CCC(C)(C)CC2)c1-c1ccc2c(c1)CCN(Cc1cc(F)ccc1F)C2 [Compound 38, (S)-2-(tert-butoxy)-2-(5-(2-(2,5-difluorobenzyl)-1,2,3,4-tetrahydroisoquinolin-6-yl)-4-(4,4-dimethylpiperidin-1-yl)-2,6-dimethylpyridin-3-yl)acetic acid]	< 0.1	0.006
Cc1nc(C)c([C@H](OC(C)(C)C)C(=O)O)c(N2CCC(C)(C)CC2)c1-c1ccc2c(c1)CCN(Cc1ccc(Cl)cc1F)C2 [Compound 39, (S)-2-(tert-butoxy)-2-(5-(2-(4-chloro-2-fluorobenzyl)-1,2,3,4-tetrahydroisoquinolin-6-yl)-4-(4,4-dimethylpiperidin-1-yl)-2,6-dimethylpyridin-3-yl)acetic acid]	< 0.1	
Cc1nc(C)c([C@H](OC(C)(C)C)C(=O)O)c(N2CCC(C)(C)CC2)c1-c1ccc2c(c1)CCN(Cc1cccc(Cl)c1Cl)C2 [Compound 40, (S)-2-(tert-butoxy)-2-(5-(2-(2,3-dichlorobenzyl)-1,2,3,4-tetrahydroisoquinolin-6-yl)-4-(4,4-dimethylpiperidin-1-yl)-2,6-dimethylpyridin-3-yl)acetic acid]	< 0.1	
Cc1nc(C)c([C@H](OC(C)(C)C)C(=O)O)c(N2CCC(C)(C)CC2)c1-c1ccc2c(c1)CCN(Cc1ccc(F)c(F)c1F)C2 [Compound 41, (S)-2-(tert-butoxy)-2-(4-(4,4-dimethylpiperidin-1-yl)-2,6-dimethyl-5-(2-(2,3,4-trifluorobenzyl)-1,2,3,4-tetrahydroisoquinolin-6-yl)pyridin-3-yl)acetic acid]	< 0.1	
